“And” between values parts separate entries of the source, which are not always exact repeats. Equal entries are not always repeated.

A short description of data set [1]: Animal weight and drug toxicity, BxPC-3 study. From the text:
Model Information—Female nude mice (nu/nu) between 5 and 6 weeks of age weighing approximately 20 grams were obtained from Harlan, Inc. (Madison, Wis.). PANC-1, obtained from the ATCC, is a pancreas tumor cell line originating from a person^(1-2). BxPC-3, obtained from the American Type Culture Collection (ATCC), is a pancreas tumor cell line originating from a person^(3-4). PANC-1 Study: Animals were implanted subcutaneously (SC) by trocar with fragments of PANC-1 harvested from SC growing tumors in nude mice hosts. When tumors grew to approximately 135 cubic millimeters (mm^3) in size (17 days following implantation, animals were pair-matched by tumor size into treatment and control groups; each treatment group contained nine mice. BxPC-3 Study: Animals were implanted subcutaneously (SC) by trocar with fragments of BxPC-3 harvested from SC growing tumors in nude mice hosts. When tumors grew to approximately 85 cubic millimeters (mm^3) in size (19 days following implantation), animals were pair-matched by tumor size into treatment and control groups; each treatment group contained nine mice. Animals in both studies were ear-tagged and followed individually throughout the experiment.
Study Design and Dosing—Initial doses were administered on Day 1 following pair-matching; both experiments were carried out as tumor growth inhibition (TGI) studies. Animals were dosed intravenously (IV) via tail vein with FK228 once every four days for three treatments (Q4Dx3) or by intraperitoneal (IP) injection with gemcitabine once every three days for four treatments (Q3Dx4), either alone or in combination, at the doses listed below (Table 1). To serve as a negative control, FK228 vehicle (2% ethanol, 8% propylene glycol, 90% 0.9% saline) was injected on a Q4Dx3 schedule.
Animal Weights—Individual and group mean weights±SD and percent weight change through Day 25 (PANC-1) or Day 29 (BxPC-3) were recorded twice weekly until study completion beginning Day 1. Final group mean weights±SD and group nadir values are reported; weight data from individual animals experiencing technical or drug-related deaths was censored from final group calculations.
Moribundity/Mortality—Animals were observed twice weekly for general moribundity and daily for mortality. Animal deaths were assessed as drug-related or technical based on factors including gross observation and weight loss; reported animal death information includes type, number, and day of death for each group.

The test system of data set [2] is Panc-1 human pancreas tumors (oncogenic K-ras). The data set is described as follows: Panc-1 mouse xenograft model, tumor growth (Example 1). The conditions noted are these: Panc-1 xenograft; FK228 IV Q4Dx3 and/or gemcitabine IP Q3Dx4; vs vehicle control. It is filed as in vivo, female nude mice. How it is done:
In this study, female nude mice were implanted subcutaneously (SC) by trocar with Panc-1 tumor fragments harvested from SC growing tumors in nude mice hosts. […] The day of treatment initiation was specified as Day 1. Vehicle control and FK228 were administered intravenously on a […] schedule (Days 1, 5, and 9). Gemcitabine was administered by an intraperitoneal injection on a […] schedule (Days 1, 4, 7, 10). Tumors were measured by Vernier calipers twice weekly.

Data set [3] deals with acetylated histone 4. The data set is described as follows: Tissue biomarker immunoblotting of PANC-1 xenograft tumors: acetylated histone 4. Format: in vivo. As to conditions: PANC-1 tumors at study completion; FK228 5 mg/kg Q4Dx3, gemcitabine 80 mg/kg Q3Dx4, or both. How it is done: Specimen Collection: […] Tumor xenograft tissue and serum specimens were obtained from in vivo studies performed by the Preclinical Research Laboratory at the completion of the experiments. […] Serum was obtained from whole blood and stored frozen at -70° C. Tissue Biomarkers: Tumor levels of acetylated histone-4, histone-4, […] were quantified by immunoblotting as described. Briefly, frozen tissue was pulverized under liquid nitrogen and homogenized in hypotonic lysis buffer. Small aliquots of the extracts were used for analysis of protein concentration by micro-BCA assay with bovine serum albumin as a protein standard. An equal amount of extracts containing about 20-50 μg protein was electrophoresed in SDS polyacrylamide gels. Proteins were transferred to ImmunoBlot PVDF membrane and were probed with appropriate primary and secondary antibodies. The chemiluminescence signal was captured by autoradiography, quantified by densitometry and expressed as a ratio of actin in each sample lane. For each biomarker, means and standard errors were calculated in each treatment group. […] Following quantitative analysis of biomarker levels in each sample, the results were normalized for b-actin and expressed as percentages of untreated controls. […]
In general terms: A western blot detects proteins with antibodies after separation by electrophoresis.

For the molecule `C/C=C1\NC(=O)[C@H]2CSSCC/C=C/[C@H](CC(=O)N[C@H](C(C)C)C(=O)N2)OC(=O)[C@H](C(C)C)NC1=O` [FK228, romidepsin], the “Final weight data % change” value in data set [1] (Day 29, FK228 2.5 mg/kg IV Q4Dx3) was “+10%”; in data set [1] (Day 29, FK228 5 mg/kg IV Q4Dx3) it was “+7%”. Moreover, the “Final weight data mean ± SD” value in data set [1] (Day 29, FK228 2.5 mg/kg IV Q4Dx3, 2.5 mg/kg) came out at 25±2 G; in data set [1] (Day 29, FK228 5 mg/kg IV Q4Dx3, 5 mg/kg), 24±1 G. In addition, the “Weight nadir % change” value in data set [1] (FK228 2.5 mg/kg IV Q4Dx3) is listed as −5%; in data set [1] (FK228 5 mg/kg IV Q4Dx3), −15%. The Weight nadir day in data set [1] (FK228 2.5 mg/kg IV Q4Dx3) and in data set [1] (FK228 5 mg/kg IV Q4Dx3) was 11 in each case. Besides, the Drug deaths total was 0/9 and 0 in data set [1] (FK228 2.5 mg/kg IV Q4Dx3, 2.5 mg/kg); 0/9 and 0 in data set [1] (FK228 5 mg/kg IV Q4Dx3, 5 mg/kg). In data set [2], this molecule had a tumor growth inhibition of 26%. Also, in data set [3], the “levels of acetylated histone 4 vs control” value is “over 2 fold”.

Values taken from patent US9539303B2, “Treatment of Ras-expressing tumors” (Celgene Corporation, priority 2006, dated 2017).
